Where “and” joins values, the source holds several entries; their conditions need not be identical. Equal entries are not always repeated. Structures can show the parent of a compound that is named as a salt.
How the values were obtained:
[1] = Talinolol relative oral bioavailability study; assay type: in vivo; conditions: male, Wistar, rat, plasma; PO 4 mg/kg talinolol, rats
Protocol: The obtained talinolol concentration was 1 mg/mL. […] The control group received 4 mg/kg talinolol dissolved in PEG400:water:ethanol 25:60:15 to obtain 1 mg/mL concentration (n=6).

[2] = Absorption enhancer pro-nano-liposphere development: dissolution in pre-concentrate and precipitation on dilution with water; assay type: physicochemical; conditions: for precipitation of the absorption enhancer upon dilution with water phase: curcumin 1% and 2%, resveratrol, piperine 2%
Protocol: The development of each of the formulations, in terms of a selection of the different components, was conducted by the following method. A combination of certain components was used as a reference starting point (as per Table 16). The choice of these certain triglyceride, organic amphiphilic co-solvent and the combination of surfactants in the detailed portions in Table 16 was based on the inventors' previous experience with various lipophilic drugs. Thus, an absorption enhancer was added to this specified prototype formulation to form a pre-concentrate.

[3] = CBD nano lipospheres relative oral bioavailability study; assay type: in vivo; conditions: male, Wistar, rat, plasma; PO 15 mg/kg CBD, rats
Protocol: The obtained CBD concentration was 3 mg/mL. […] The control group received (15 mg/kg) CBD solution in propylene glycol/EthOH/water 30/30/40 respectively (1 mg/mL) (n=6).

[4] = CBD relative oral bioavailability: CBD, CBD-PNL and CBD-PNL with absorption enhancers; conditions: male, Wistar, rat, in vivo; PO CBD 15 mg/kg; Piperine 10 mg/kg, rats; mean ± S.E.M.
Protocol: The obtained CBD and piperine concentrations were 3 mg/mL and 2 mg/ml, respectively. […] The control groups received (15 mg/kg) CBD solution in propylene glycol/EthOH/water 30/30/40 respectively (1 mg/mL) (n=6) or CBD-PNL ((15 mg/kg of CBD).

[5] = system: CYP3A4; conditions: 120 min incubation in isolated rat microsomes
[6] = system: Male Wistar rats; test: AM pharmacodynamic study: heart rate and IBI by radiotelemetry; assay type: in vivo; conditions: 12.5 mg/kg AM PO
Protocol: The deferential effect of AM on heart rate was used as a pharmacodynamic marker for assessment of AM pharmacological effect following oral administration.
Male Wistar rats (Harlan, Israel) weighing 300-350 g were kept under a 12 h light/dark cycle with free access to water and food (standard rat chow) Animals were anesthetized for the period of surgery by intraperitoneal injection of 1 mL/kg of ketamine-xylazine solution (90/10%, respectively).
An ECG transmitter (TA11CA-F40, Data Sciences International Inc., St. Paul, MN) was implanted subcutaneously over the scapula with the leads in a Lead 2 configuration by tunneling subcutaneously from the dorsal incision using a trocar. The negative lead was placed in the area of the right shoulder and the positive lead was placed immediately to the left of the xyphoid space and caudal to the rib cage.
The signal from the transmitters was received by two RLA 2000 receivers and transmitted via a Data Exchange Matrix to a Dataquest PCI card. The data were recorded continuously during the whole experiment at 1000 Hz rate with no filter cutoff and full scale at 10 mV.
The collected data were interpreted by Dataquest A.R.T program. The IBI (R-R duration, sec) and HR (bpm) were calculated in average values of each 10 min of the recording.
At the beginning the baseline were recorded at least for 120 min. After establishing stable recording the rats were treated by oral gavage. During the treatment the data was collected and afterwards extracted in further analysis.
Two groups of three rats received the treatment in a cross over manner, meaning each rat received each treatment once. The treatments were as follows:
Blank nano-lipospheres not containing AM was freshly prepared as described above and was administered by oral gavage. […] .
In order to inspect separately the effect of each delivery method, we first calculated the mean baseline IBI duration throughout 60 min prior the administration. The drug was administered at t=60 min Post administration the data was calculated throughout 180 min. The net change was calculated as the percentage of the change for each drug administration mode relative to the baseline recording. The changes from base-line in two parameters: IBI and HR were analyzed in two points: 90 min. post administration (mid phase) and 180 min post administration (end phase) (Tables 9A-B and 10A-B, respectively).

[7] = Tacrolimus oral bioavailability study; assay type: in vivo, Male Wistar rats
[8] = Compatibility of BCS class II and IV drugs with the piperine-PNL pre-concentrate; assay type: physicochemical
Excerpt: In order to determine the compatibility of the developed PNL delivery system with various lipophilic drugs, we have tested the ability of the piperine-PNL to dissolve various BCS class II and IV drugs.

[9] = 90 min post administration, HCl
[10] = 180 min post administration, HCl

Structure (SMILES): CC(C)(C)NCC(O)COc1ccc(NC(=O)NC2CCCCC2)cc1 (stereo not drawn) [Talinolol, talinolol]
- AUC [1]: 11.9 ng·h/mL
- Cmax [1]: 5.55 ± 1.65 ng/mL
- half-life [1]: 69 ± 11.4 min

Structure (SMILES): COc1cc(/C=C/C(=O)CC(=O)/C=C/c2ccc(O)c(OC)c2)ccc1O [curcumin]
- precipitation of the absorption enhancer upon dilution with water phase [2]: precipitation

Structure (SMILES): C=C(C)[C@@H]1CCC(C)=C[C@H]1c1c(O)cc(CCCCC)cc1O [CBD, Cannabidiol]
- AUC [3]: 259 ng·h/mL
- Cmax [3]: 105 ± 103 ng/mL
- AUC [4]: 90 ± 21 ng·h/mL
- Cmax [4]: 39 ± 8 ng/mL

Structure (SMILES): C[C@]12CC[C@H]3[C@@H](CCC4=CC(=O)CC[C@@]43C)[C@@H]1CC[C@@H]2O [testosterone]
- testosterone remaining [5]: 75.39±8.82%

Structure (SMILES): Oc1ccc(C=Cc2cc(O)cc(O)c2)cc1 [resveratrol]
- dissolution of the absorption enhancer in the pre-concentrate / appearance of pre-concentrate [2]: homogeneous and visually clear pre-concentrate
- precipitation of the absorption enhancer upon dilution with water phase [2]: No precipitation

Structure (SMILES): CCCCc1oc2ccccc2c1C(=O)c1cc(I)c(OCCN(CC)CC)c(I)c1 [AM, Amiodarone HCl]
- HEART RATE (BPM) MID PHASE ([6]; 90 min post administration): 452.916 ± 20.01 BPM
- IBI (sec) MID PHASE ([6]; 90 min post administration): 0.1435 ± 0.008 s
- HEART RATE CHANGE % (percentage from baseline), mid phase [6, 9]: 131.28% and 131.28 (*) %
- IBI CHANGE % (percentage from baseline), mid phase [6, 9]: 88.86% and 88.86 (*) %
- IBI (sec) END PHASE ([6]; 180 min post administration): 0.143 ± 0.007 s
- HEART RATE (BPM) END PHASE [6, 10]: 443.071 ± 11.06 BPM and 443.07 ± 11.06 BPM
- HEART RATE CHANGE % (percentage from baseline), end phase [6, 10]: 128.43% and 128.43 (*) %
- IBI CHANGE % (percentage from baseline), end phase [6, 10]: 89.79% and 89.79 (*) %
- heart rate following administration ([6]; phase not given): 452.916±20.01 BPM
- mean IBI following administration ([6]; phase not given): 0.143 ± 0.0074 s

Structure (SMILES): C=CC[C@@H]1/C=C(\C)C[C@H](C)C[C@H](OC)[C@H]2O[C@@](O)(C(=O)C(=O)N3CCCC[C@H]3C(=O)O[C@H](/C(C)=C/[C@@H]3CC[C@@H](O)[C@H](OC)C3)[C@H](C)[C@@H](O)CC1=O)[C@H](C)C[C@@H]2OC [tacrolimus]
- Coefficient of variation (% CV) of plasma tacrolimus concentrations ([7]; 0.25 h after PO 1 mg/kg): 95.1%
- Coefficient of variation (% CV) of plasma tacrolimus concentrations ([7]; 0.5 h after PO 1 mg/kg): 90.8%
- Coefficient of variation (% CV) of plasma tacrolimus concentrations ([7]; 0.75 h after PO 1 mg/kg): 73.2%
- Coefficient of variation (% CV) of plasma tacrolimus concentrations ([7]; 1 h after PO 1 mg/kg): 83.5%
- Coefficient of variation (% CV) of plasma tacrolimus concentrations ([7]; 2 h after PO 1 mg/kg): 103.5%

Structure (SMILES): C[C@@H]1[C@H](O)[C@@H](C)/C=C/C=C/C=C/C=C/C=C/C=C/C=C/[C@H](O[C@@H]2O[C@H](C)[C@@H](O)[C@H](N)[C@@H]2O)C[C@@H]2O[C@](O)(C[C@@H](O)C[C@@H](O)[C@H](O)CC[C@@H](O)C[C@@H](O)CC(=O)O[C@H]1C)C[C@H](O)[C@H]2C(=O)O [Amphotericin B]
- compatibility with the pre-concentrate [8]: incompatible

Source: patent US12161763B2, “Formulation and method for increasing oral bioavailability of drugs” (Yissum Research Development Company of the Hebrew …, priority 2012, dated 2024)
